Data from patent publication US20070031511A1, “Method of treatment” (priority 2003, published 2007).
Where no end group is shown, it is not given here. [ ]: non-standard residue; d: D form. pGlu = O=C1CC[C@@H](C(=O)O)N1

Experiments:
IMGE-5 cells [1] = test: IMGE-5 cell proliferation, [3H]-thymidine incorporation; format: cell-based, mice; conditions: for S (%), maximum % stimulation: IMGE cells, thymidine uptake, best fit at saturating concentration; for Effect of DFO on proliferation induced by the peptide: peptide 100 nM, plus or minus 1 μM DFO, [3H]-thymidine incorporation; for Inhibition of Ggly-stimulated IMGE-5 cell proliferation by iron chelator: [3H]-thymidine incorporation (FIG. 10)
Procedure: In some cases cell proliferation was also measured by [^3H]-thymidine incorporation as described previously (Oiry et al., 2000). Briefly, IMGE-5 cells (10^5/well) were seeded in 24-well plates in medium containing 10% FBS and 1 unit/ml γ-interferon. On the next day cells were serum starved and shifted to 39° C. for 24 hr. Cells were then incubated with or without various compounds at 39° C. for 17 h in medium supplemented with 0.2% bovine serum albumin only. Cells were incubated with 0.5 μCi of [^3H] thymidine in the same medium at 39° C. for 4 h, washed twice with PBS (2.7 mM KCl, 142 mM NaCl, 1.5 mM KH2PO4, 10 mM Na2HPO4, pH 6.95) containing 0.2% bovine serum albumin and incubated at 4° C. for 30 min with 5% trichloroacetic acid. Finally cells were washed with 95% ethanol to remove unincorporated [^3H] thymidine, and lysed with 1 M NaOH. Lysates were transferred to counting vials and neutralized with 1M HCl. The radioactivity of each lysate was counted in a β-counter after the addition of 10 ml of Pico-fluor 40 solution (Packard, Meriden, Conn.).
In some experiments IMGE-5 cells were seeded in a 96-well plate at a density of 3-5×10^3 cells/well in.DMEM containing 10% FBS, and cultured at 33° C.. On the following day, the cells were serum-starved at 33° C. for 24 h. […] The cells were cultured at 39° C. for 24 h, and then harvested using a NUNC cell harvester. The amount of ^3H-thymidine incorporated through DNA synthesis was detected with a β-counter (Packard, Meriden, Conn.). […]

IMGE-5 cells [2] = test: IMGE-5 cell proliferation, MTT assay; format: cell-based, mice; conditions: MTT assay; peptides shown at 1 nM (FIGS. 7A, 8A)
Procedure: (§1) The IMGE-5 cell line was established from the gastric mucosa of mice transgenic for a temperature-sensitive mutant of the SV40 large T antigen (Hollande et al, 2001). IMGE-5 cells were generally grown at 33° C. in DMEM containing 1 unit/ml γ-interferon, 10% FBS, 100 U/ml penicillin, and 100 μg/ml streptomycin (permissive conditions). For all experiments, cells were transferred to 39° C. in the same medium without […] (non-permissive conditions), where they display differentiated characteristics such as expression of functional adherens and tight junctions. All experiments have been performed on cells between passages 20 and 35.
A colorimetric assay was used to measure cell proliferation. Briefly, IMGE-5 cells were seeded in a 96-well plate at a density of 10^4 cells/well in DMEM containing 10% FBS and antibiotics. The following day, cells were synchronized in Go by incubation for 24 h in the same medium lacking FBS. The medium was replaced the next day with fresh medium containing 1% FBS and antibiotics and the peptides under investigation, and incubation was continued for 72 h. 15 μl of 5 mg/ml 3-(4,5-dimethylthiazol-2-yl)-2-5-diphenyltetrazolium bromide (MTT, Sigma, St Louis Mo.) was added per well, and the plate was incubated at 37° C. for 4 h before the medium was discarded. 200 μl 40 mM HCl in isopropanol was added to lyse the cells, and the absorbance at 570 nm was read on a BioRad Model 550 Microplate reader (BioRad, Hercules, Calif.).

[3] = Quenching of peptide tryptophan fluorescence by ferric ions (stoichiometry, apparent Kd); format: binding; conditions: 10 mM sodium acetate pH 4.0, 100 mM NaCl, 0.005% Tween 20; mean ± S.E.; read-out: Kd (μM), apparent dissociation constant for ferric ions
Procedure: The tryptophan fluorescence of peptide solutions was measured in 3 mL quartz cuvettes thermostated at […], with a Spex Fluorolog-2 spectrofluorimeter (Spex Industries, Edison, N.J.), with the excitation and emission wavelengths set at 290 and 345 nm, respectively. The quenching of tryptophan fluorescence induced by the binding of metal ions was used to calculate the fraction of binding sites occupied, fa: fa=(yf−y)/(yf−yb) where y is the fluorescence signal at a given concentration of metal ions and yb and yf are the signals when the binding sites are fully occupied and unoccupied, respectively (Winzor et al, 1995). The stoichiometry, p, and apparent dissociation constant, Kd, were then obtained, using the program Sigmastat (Jandel Scientific, San Rafael, Calif.), from the intercept and slope of a linear regression of the data transformed as described by Winzor and Sawyer (1995) in terms of the equation Cs/fa=pCa+Kd/(1−fa) where Cs is the total concentration of metal ions, and Ca is the total concentration of glycine-extended gastrin17. For the bismuth binding studies, the data was fitted by non-linear regression with the program Sigmaplot (Jandel Scientific, San Rafael, Calif.) to the equations for models with one binding site or two binding sites with identical affinities: fa=x/(Kd1+x) or to the model with two binding sites with different affinities: fa=(Kd1·x+Kd2·x+2x^2)/2(Kd1·Kd2+Kd1·x+Kd2·x+x^2) where x is the concentration of free metal ions, Kd1 is the first site dissociation constant and Kd2 is the second site dissociation constant. For the one-site model the value of x at any given total concentration of metal ions was obtained by exact solution of the appropriate quadratic (Malby et al, 2001). For the two-site models the value of x was obtained by an iterative Newton-Raphson procedure (Linse et al, 1991). Absorption Spectroscopy
The tryptophan fluorescence of progastrin6-80, glycine-extended gastrin17 and related peptides was measured in the presence of increasing concentrations of ferric ions in 10 mM sodium acetate, pH 4.0, 100 mM NaCl, 0.005% Tween 20. […] Values from the indicated number of independent experiments were combined to obtain the mean values (±S.E.) presented above. No binding of ferric ions to Ggly1-4 or Ggly12-18 was observed.
The tryptophan fluorescence of amidated gastrin17 and related peptides was measured in the presence of increasing concentrations of ferric ions at pH 4.0 (8). Values of the stoichiometry and the apparent dissociation constant (Kd) were obtained from linear transformations of the data presented in FIG. 20A by least squares fitting. Values from the indicated number of independent experiments were combined to obtain the mean values (±S.E.) presented above.

IMGE-5 cells [4] = test: Wound healing / cell migration assay; format: cell-based, mice; conditions: wound healing assay; fragments and mutants shown at 1 nM (FIGS. 7B, 8B)
Procedure: as §1
In order to assess the effects of different stimuli on cell migration, wound healing experiments were performed as detailed elsewhere (Hollande et al, 1997). In brief, IMGE-5 cells were grown in 12-well plates in DMEM at 33° C. until they reached 80% confluence, then shifted to 39° C. and starved of serum for 24 h. The confluent monolayer was wounded using a 20 μl-pipette tip, and cells were then washed 3 times with phosphate-buffered saline (PBS: 2.7 mM KCl, 1.5 MM KH2PO4, 142 mM NaCl, and 10 mM Na2HPO4, pH 6.95) and treated with or without different compounds in DMEM with antibiotics. Morphology and migration of cells were observed and photographed immediately, and after treatment for 17 and 24 h. Wound width was measured at six different positions on the 24 h photographs, and averages calculated.

Row | Compound | S (%), maximum % stimulation (IMGE-5 cells [1]) | Effect of DFO on proliferation induced by the peptide (IMGE-5 cells [1]) | Stimulation of IMGE-5 cell proliferation (IMGE-5 cells [2]) | Stimulation of IMGE-5 cell migration (IMGE-5 cells [4]) | also measured
1 | LEEEEEA [LE5A] | 34.7% | lower in the presence of DFO, although the reduction did not reach significance |  |  | 
2 | COc1cccc2c1C(=O)c1c(O)c3c(c(O)c1C2=O)C[C@@](O)(C(=O)CO)C[C@@H]3O[C@H]1C[C@H](N)[C@H](O)[C@H](C)O1 [doxorubicin] |  |  |  |  | Inhibition of Ggly-stimulated IMGE-5 cell proliferation by iron chelator (IMGE-5 cells [1]): inhibited Ggly-stimulated IMGE-5 cell proliferation in a dose-dependent manner
3 | LEEEEE [LE5] | 29.9% | no significant reduction |  |  | 
4 | EEEEEAY [Peptide E5AY] | 36.1% | significantly blocked by DFO |  |  | 
5 | EEEEE [Peptide E5] | 22.5% | no significant reduction |  |  | 
6 | GglyE6A: Ggly mutant, Glu6 replaced by Ala, SEQ ID NO:10 ([pGlu]GPWLAEEEEAYGWMDFG; ends and bridges not checked) |  |  | to the same extent as Ggly | to the same extent as Ggly | Kd [3]: 0.23 ± 0.02 µM
7 | Oc1c(I)cc(Cl)c2cccnc12 [clioquinol] |  |  |  |  | Inhibition of Ggly-stimulated IMGE-5 cell proliferation by iron chelator (IMGE-5 cells [1]): inhibited Ggly-stimulated IMGE-5 cell proliferation in a dose-dependent manner
8 | EEEEEA [Peptide E5A] | 29.1% | no significant reduction |  |  | 
9 | Ggly12-18: C-terminal heptapeptide of Ggly, SEQ ID NO:8 (YGWMDFG; listed as Homo sapiens) |  |  | neither of these fragments stimulated proliferation | Nor did they stimulate migration | 
10 | Ggly1-4: fragment of Ggly, residues 1-4, SEQ ID NO:6 ([pGlu]GPW; listed as Homo sapiens) |  |  | neither of these fragments stimulated proliferation | Nor did they stimulate migration | 
